# Source: ChEMBL document CHEMBL3431459, “Roche carnitine palmitoyltransferase modulator screening data (supplementary data associated with the publication CHEMBL2216752)”
# What was measured:
# [1] = SUPPLEMENTARY: Lipophilicity (log D) Determination by high-throughput shake-flask; assay type: physicochemical; conditions: octanol/water
# [2] = SUPPLEMENTARY: PAMPA permeability assay; assay type: physicochemical; conditions: read-out: Permeability
# [3] = molecular target: T1, Carnitine O-palmitoyltransferase 2, mitochondrial (Rattus norvegicus, UniProt P18886); test: (§1) SUPPLEMENTARY: Inhibition of Carnitine palmitoyltransferase 2
# T1 sequence (P18886 whole entry): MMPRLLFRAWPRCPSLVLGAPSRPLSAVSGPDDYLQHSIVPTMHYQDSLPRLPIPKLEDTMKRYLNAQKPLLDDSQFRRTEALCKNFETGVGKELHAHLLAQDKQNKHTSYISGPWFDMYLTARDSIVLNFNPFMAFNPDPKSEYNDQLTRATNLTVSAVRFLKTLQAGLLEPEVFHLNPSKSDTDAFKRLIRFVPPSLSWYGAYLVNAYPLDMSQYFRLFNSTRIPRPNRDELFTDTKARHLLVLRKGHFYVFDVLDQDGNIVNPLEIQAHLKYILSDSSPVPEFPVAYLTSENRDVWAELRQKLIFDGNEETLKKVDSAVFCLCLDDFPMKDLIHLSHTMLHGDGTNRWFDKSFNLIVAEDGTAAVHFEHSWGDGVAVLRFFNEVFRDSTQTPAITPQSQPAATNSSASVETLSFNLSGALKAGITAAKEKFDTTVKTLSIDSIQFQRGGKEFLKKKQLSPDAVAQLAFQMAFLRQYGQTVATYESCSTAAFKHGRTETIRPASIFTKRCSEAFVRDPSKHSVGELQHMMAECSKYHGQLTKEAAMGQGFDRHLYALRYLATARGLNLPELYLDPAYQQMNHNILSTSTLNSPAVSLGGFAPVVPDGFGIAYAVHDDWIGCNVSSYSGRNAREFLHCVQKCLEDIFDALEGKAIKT
# [4] = molecular target: T2, Carnitine O-palmitoyltransferase 2, mitochondrial (Homo sapiens, UniProt P23786); test: as §1
# T2 sequence (P23786 whole entry): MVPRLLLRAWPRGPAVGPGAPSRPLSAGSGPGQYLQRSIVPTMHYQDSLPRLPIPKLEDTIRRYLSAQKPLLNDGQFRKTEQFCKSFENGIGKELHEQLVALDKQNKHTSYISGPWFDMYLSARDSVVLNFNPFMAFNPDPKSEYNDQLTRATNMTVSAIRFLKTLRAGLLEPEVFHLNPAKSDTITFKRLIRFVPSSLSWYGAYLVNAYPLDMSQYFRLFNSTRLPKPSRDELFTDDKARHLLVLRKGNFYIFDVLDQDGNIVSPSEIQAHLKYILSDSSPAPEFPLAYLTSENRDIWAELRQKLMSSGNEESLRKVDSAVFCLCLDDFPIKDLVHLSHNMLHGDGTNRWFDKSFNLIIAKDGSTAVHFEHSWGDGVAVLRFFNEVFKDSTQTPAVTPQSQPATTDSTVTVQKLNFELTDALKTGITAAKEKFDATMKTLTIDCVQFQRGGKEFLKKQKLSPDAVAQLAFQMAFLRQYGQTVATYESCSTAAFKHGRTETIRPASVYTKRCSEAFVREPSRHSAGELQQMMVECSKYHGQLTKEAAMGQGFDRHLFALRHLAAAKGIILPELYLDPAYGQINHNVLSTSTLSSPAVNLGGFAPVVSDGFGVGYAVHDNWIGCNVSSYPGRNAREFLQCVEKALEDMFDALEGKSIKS
# [5] = molecular target: T3, Carnitine O-palmitoyltransferase 1, muscle isoform (Homo sapiens, UniProt Q92523); test: SUPPLEMENTARY: Inhibition of Carnitine palmitoyltransferase 1, muscle isoform; parameters: species or system Muscle tissue
# T3 sequence (Q92523 whole entry): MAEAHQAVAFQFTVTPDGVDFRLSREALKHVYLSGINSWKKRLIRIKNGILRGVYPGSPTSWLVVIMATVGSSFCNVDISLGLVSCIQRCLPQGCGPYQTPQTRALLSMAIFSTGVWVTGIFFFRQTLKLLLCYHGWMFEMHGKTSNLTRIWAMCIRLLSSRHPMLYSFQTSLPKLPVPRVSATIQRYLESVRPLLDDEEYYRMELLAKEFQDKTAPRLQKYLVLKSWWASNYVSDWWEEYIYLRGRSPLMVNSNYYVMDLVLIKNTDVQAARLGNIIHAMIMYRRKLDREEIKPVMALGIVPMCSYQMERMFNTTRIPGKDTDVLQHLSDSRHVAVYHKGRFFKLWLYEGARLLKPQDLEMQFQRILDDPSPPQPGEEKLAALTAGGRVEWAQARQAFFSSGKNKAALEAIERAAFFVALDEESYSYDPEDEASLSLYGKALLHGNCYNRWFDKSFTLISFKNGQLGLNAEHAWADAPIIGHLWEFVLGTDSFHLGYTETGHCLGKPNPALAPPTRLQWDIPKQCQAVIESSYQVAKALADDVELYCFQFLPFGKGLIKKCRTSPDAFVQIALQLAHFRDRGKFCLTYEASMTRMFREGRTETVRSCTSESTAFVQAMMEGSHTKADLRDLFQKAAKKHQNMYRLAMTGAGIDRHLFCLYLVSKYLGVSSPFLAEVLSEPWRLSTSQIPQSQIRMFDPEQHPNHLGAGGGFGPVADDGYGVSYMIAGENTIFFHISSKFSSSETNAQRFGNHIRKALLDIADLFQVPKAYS
# [6] = SUPPLEMENTARY: Lyophilisation Solubility Assay (LYSA); assay type: physicochemical; conditions: read-out: Kinetic_solubility
# [7] = molecular target: T4, Carnitine O-palmitoyltransferase 1, liver isoform (Homo sapiens, UniProt P50416); test: (§2) SUPPLEMENTARY: Inhibition of Carnitine palmitoyltransferase 1, liver isoform
# T4 sequence (P50416 whole entry): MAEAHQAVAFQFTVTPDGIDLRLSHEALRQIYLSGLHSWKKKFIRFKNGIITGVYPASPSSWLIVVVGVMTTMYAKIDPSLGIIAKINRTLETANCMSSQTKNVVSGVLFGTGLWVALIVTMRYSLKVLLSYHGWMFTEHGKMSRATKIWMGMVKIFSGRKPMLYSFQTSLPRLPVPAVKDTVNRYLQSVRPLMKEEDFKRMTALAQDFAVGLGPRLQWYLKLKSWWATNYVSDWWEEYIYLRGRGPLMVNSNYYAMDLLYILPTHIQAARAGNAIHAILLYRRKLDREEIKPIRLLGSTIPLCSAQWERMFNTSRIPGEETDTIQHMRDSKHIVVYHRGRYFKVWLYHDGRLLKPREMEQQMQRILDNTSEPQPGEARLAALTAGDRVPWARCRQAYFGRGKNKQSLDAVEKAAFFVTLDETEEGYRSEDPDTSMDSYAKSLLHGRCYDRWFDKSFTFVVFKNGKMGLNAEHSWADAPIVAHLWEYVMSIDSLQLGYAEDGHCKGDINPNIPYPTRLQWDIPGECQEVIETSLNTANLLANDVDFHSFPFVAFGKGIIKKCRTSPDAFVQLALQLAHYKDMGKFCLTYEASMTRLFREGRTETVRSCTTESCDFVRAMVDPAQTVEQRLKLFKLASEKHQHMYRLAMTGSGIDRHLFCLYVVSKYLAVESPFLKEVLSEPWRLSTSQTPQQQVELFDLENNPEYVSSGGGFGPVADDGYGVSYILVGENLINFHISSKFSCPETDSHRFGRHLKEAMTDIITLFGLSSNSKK
# [8] = molecular target: T5, Carnitine O-palmitoyltransferase 1, liver isoform (Rattus norvegicus, UniProt P32198); test: as §2
# T5 sequence (P32198 whole entry): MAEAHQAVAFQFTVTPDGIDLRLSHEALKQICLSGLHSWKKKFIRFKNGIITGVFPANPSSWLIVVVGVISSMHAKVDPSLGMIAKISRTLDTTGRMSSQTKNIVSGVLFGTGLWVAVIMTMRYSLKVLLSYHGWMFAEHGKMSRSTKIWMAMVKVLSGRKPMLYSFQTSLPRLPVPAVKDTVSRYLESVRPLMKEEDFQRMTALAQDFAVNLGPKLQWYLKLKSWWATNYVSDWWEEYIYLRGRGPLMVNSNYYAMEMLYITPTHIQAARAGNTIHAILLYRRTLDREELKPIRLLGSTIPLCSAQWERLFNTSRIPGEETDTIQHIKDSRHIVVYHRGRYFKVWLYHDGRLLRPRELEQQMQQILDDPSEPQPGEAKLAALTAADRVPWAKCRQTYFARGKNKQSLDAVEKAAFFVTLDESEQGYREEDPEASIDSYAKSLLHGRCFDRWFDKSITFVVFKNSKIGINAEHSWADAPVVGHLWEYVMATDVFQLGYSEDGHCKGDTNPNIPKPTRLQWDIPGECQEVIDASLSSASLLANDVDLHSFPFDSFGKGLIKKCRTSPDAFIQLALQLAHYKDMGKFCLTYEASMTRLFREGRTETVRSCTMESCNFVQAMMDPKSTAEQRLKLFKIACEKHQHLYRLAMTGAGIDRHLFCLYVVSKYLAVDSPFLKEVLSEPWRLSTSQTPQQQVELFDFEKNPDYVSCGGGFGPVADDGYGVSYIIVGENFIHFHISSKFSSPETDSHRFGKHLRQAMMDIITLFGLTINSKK
Compound,logD [1],Papp [2],IC50 [3],IC50 [4],IC50 [5],solubility kinetic [6],IC50 [7],IC50 [8]
COc1ccc(Cl)cc1S(=O)(=O)N1COc2ccc(C(=O)Nc3nc(CC(=O)O)cs3)cc21,0.13,2.93 ×10⁻⁶ cm/s,> 100 µM,> 100 µM,0.661 µM,519 µg/mL,53.3 nM,18.4 nM
CN1CCN(C(=O)COc2ccccc2)[C@@H](c2nc(-c3cccc(C(F)(F)F)c3)n[nH]2)C1,3.19,2.31 ×10⁻⁶ cm/s,> 100 µM,94.6 µM,> 100 µM,81 µg/mL,37 nM,54.7 nM
NS(=O)(=O)c1ccc(C#C[C@H]2CCCCN2C(=O)COc2ccccc2)cc1,3.01,4.11 ×10⁻⁶ cm/s,> 100 µM,> 100 µM,> 100 µM,8 µg/mL,86.6 nM,83.8 nM
Cc1cc(C)cc(S(=O)(=O)c2nn(C)c3ccc(C(=O)Nc4ccc(C(=O)O)cc4)cc23)c1,2.21,0.76 ×10⁻⁶ cm/s,10 µM,2.46 µM,2.57 µM,14 µg/mL,74.9 nM,27.2 nM
COc1ccc(Cl)cc1S(=O)(=O)N1CCSc2ccc(C(=O)Nc3ccc(CC(=O)O)cc3)cc21,0.61,5.1 ×10⁻⁶ cm/s,> 100 µM,> 100 µM,0.792 µM,232 µg/mL,120 nM,155 nM
COc1ccc(Cl)cc1S(=O)(=O)Nc1cc(C(=O)Nc2ccccc2)ccc1/C=C/C(=O)O,0.36,1 ×10⁻⁶ cm/s,> 100 µM,> 100 µM,83.1 µM,> 585 µg/mL,136 nM,79.8 nM
COc1ccc(Cl)cc1S(=O)(=O)N1CCOc2ccc(C(=O)Nc3ccc(C(=O)O)c(F)c3)cc21,0.29,1.71 ×10⁻⁶ cm/s,23.4 µM,6.3 µM,1.8 µM,15 µg/mL,65.1 nM,80.5 nM

# The remaining lines, values ahead:
logD [1],Papp [2],IC50 [3],IC50 [4],IC50 [5],solubility kinetic [6],IC50 [7],IC50 [8],Compound
2.34,3.94 ×10⁻⁶ cm/s,> 100 µM,> 100 µM,> 100 µM,141 µg/mL,137 nM,611 nM,Cc1cc(-c2noc([C@H]3CCCCN3C(=O)COc3ccccc3)n2)no1
3.08,4.38 ×10⁻⁶ cm/s,> 100 µM,> 100 µM,> 100 µM,20 µg/mL,181 nM,106 nM,O=C(COc1ccccc1)N1CCCC[C@@H]1c1noc(C2CCCC2)n1
3.04,5.95 ×10⁻⁶ cm/s,> 100 µM,> 100 µM,> 100 µM,27 µg/mL,293 nM,1670 nM,Cc1nnsc1-c1noc([C@H]2CCCCN2C(=O)COc2ccccc2)n1
1.98,0.51 ×10⁻⁶ cm/s,70 µM,30.3 µM,> 100 µM,138 µg/mL,242 nM,713 nM,O=C(NCCO)c1cccc(-c2n[nH]c([C@H]3CCCCN3C(=O)COc3ccccc3)n2)c1
3.01,2.55 ×10⁻⁶ cm/s,> 100 µM,72.8 µM,> 100 µM,17 µg/mL,43.8 nM,104 nM,CC(=O)Nc1cccc(-c2nc([C@H]3CCCCN3C(=O)COc3ccccc3)no2)c1
3.22,4.18 ×10⁻⁶ cm/s,> 100 µM,> 100 µM,> 100 µM,12 µg/mL,176 nM,235 nM,O=C(COc1ccccc1)N1CCCC[C@@H]1c1noc(-c2cnc3ccccc3n2)n1
3.25,1.54 ×10⁻⁶ cm/s,> 100 µM,4.77 µM,> 100 µM,6 µg/mL,51.4 nM,30.4 nM,CC(=O)c1ccc(-c2nc([C@H]3CCCCN3C(=O)COc3ccccc3)no2)cc1
2.89,1 ×10⁻⁶ cm/s,> 100 µM,> 100 µM,> 100 µM,< 1 µg/mL,67 nM,162 nM,O=C(COc1ccccc1)N1CCCC[C@@H]1c1noc(-c2cccc(N3CCCS3(=O)=O)c2)n1
